Results from PubChem BioAssay (NCI).
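Dose response: 5 concentrations. Exposure: 48 h. Format: 96-well plates. Endpoint: linear interpolation; highest concentration if not reached. GI50 = concentration required for 50% inhibition of growth. TGI marks complete inhibition of growth.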

Legend:
Experiment in all cases: inhibition of tumour cell growth, NCI panel, 48 h; in the data active = GI50 below about 0.43 µM; inactive = the rest
786-0 renal = test system: 786-0 renal
A498 renal = test system: A498 renal
A549 NSCLC = test system: A549 NSCLC
ACHN renal = test system: ACHN renal
BT-549 breast = test system: BT-549 breast
CAKI-1 renal = test system: CAKI-1 renal
CCRF-CEM leukemia = test system: CCRF-CEM leukemia
DU-145 prostate = test system: DU-145 prostate
EKVX NSCLC = test system: EKVX NSCLC
HCC-2998 colon = test system: HCC-2998 colon
HCT-116 colon = test system: HCT-116 colon
HCT-15 colon = test system: HCT-15 colon
HL-60(TB) leukemia = test system: HL-60(TB) leukemia
HOP-62 NSCLC = test system: HOP-62 NSCLC
HOP-92 NSCLC = test system: HOP-92 NSCLC
HS 578T breast = test system: HS 578T breast
HT29 colon = test system: HT29 colon
K-562 leukemia = test system: K-562 leukemia
KM12 colon = test system: KM12 colon
LOX IMVI melanoma = test system: LOX IMVI melanoma
M14 melanoma = test system: M14 melanoma
MALME-3M melanoma = test system: MALME-3M melanoma
MCF7 breast = test system: MCF7 breast
MDA-MB-231 breast = test system: MDA-MB-231 breast
MDA-MB-435 = test system: MDA-MB-435
MDA-N = test system: MDA-N
MOLT-4 leukemia = test system: MOLT-4 leukemia
NCI-H226 lung = test system: NCI-H226 lung
NCI-H23 lung = test system: NCI-H23 lung
NCI-H460 lung = test system: NCI-H460 lung
NCI-H522 lung = test system: NCI-H522 lung
NCI/ADR-RES ovarian = test system: NCI/ADR-RES ovarian
OVCAR-3 ovarian = test system: OVCAR-3 ovarian
OVCAR-4 ovarian = test system: OVCAR-4 ovarian
OVCAR-5 ovarian = test system: OVCAR-5 ovarian
OVCAR-8 ovarian = test system: OVCAR-8 ovarian
PC-3 prostate = test system: PC-3 prostate
RPMI-8226 leukemia = test system: RPMI-8226 leukemia
RXF 393 renal = test system: RXF 393 renal
SF-268 CNS = test system: SF-268 CNS
SF-295 CNS = test system: SF-295 CNS
SF-539 CNS = test system: SF-539 CNS
SK-MEL-2 melanoma = test system: SK-MEL-2 melanoma
SK-MEL-28 melanoma = test system: SK-MEL-28 melanoma
SK-MEL-5 melanoma = test system: SK-MEL-5 melanoma
SK-OV-3 ovarian = test system: SK-OV-3 ovarian
SNB-19 CNS = test system: SNB-19 CNS
SNB-75 CNS = test system: SNB-75 CNS
SW-620 colon = test system: SW-620 colon
T-47D breast = test system: T-47D breast
TK-10 renal = test system: TK-10 renal
U251 CNS = test system: U251 CNS
UACC-257 melanoma = test system: UACC-257 melanoma
UACC-62 melanoma = test system: UACC-62 melanoma
UO-31 renal = test system: UO-31 renal
COLO 205 colon = test system: COLO 205 colon
IGROV1 ovarian = test system: IGROV1 ovarian
SN12C renal = test system: SN12C renal
SR leukemia = test system: SR leukemia

N#CCCN(CCCN(C(=O)N(c1ccccc1)c1ccccc1)c1ccccc1)C(=O)Nc1ccccc1
> 100 µM: TGI (786-0 renal) | TGI (A498 renal) | TGI (A549 NSCLC) | TGI (ACHN renal) | TGI (BT-549 breast) | TGI (CAKI-1 renal) | TGI (DU-145 prostate) | TGI (EKVX NSCLC) | TGI (HCC-2998 colon) | TGI (HCT-116 colon) | TGI (HCT-15 colon) | TGI (HOP-62 NSCLC) | TGI (HOP-92 NSCLC) | TGI (HS 578T breast) | TGI (HT29 colon) | TGI (K-562 leukemia) | TGI (KM12 colon) | TGI (LOX IMVI melanoma) | TGI (M14 melanoma) | TGI (MALME-3M melanoma) | TGI (MCF7 breast) | TGI (MDA-MB-231 breast) | TGI (MDA-MB-435) | TGI (MDA-N) | TGI (MOLT-4 leukemia) | TGI (NCI-H226 lung) | TGI (NCI-H23 lung) | TGI (NCI-H460 lung) | TGI (NCI-H522 lung) | TGI (NCI/ADR-RES ovarian) | TGI (OVCAR-3 ovarian) | TGI (OVCAR-4 ovarian) | TGI (OVCAR-5 ovarian) | TGI (OVCAR-8 ovarian) | TGI (PC-3 prostate) | TGI (RPMI-8226 leukemia) | TGI (RXF 393 renal) | TGI (SF-268 CNS) | TGI (SF-295 CNS) | TGI (SF-539 CNS) | TGI (SK-MEL-2 melanoma) | TGI (SK-MEL-28 melanoma) | TGI (SK-MEL-5 melanoma) | TGI (SK-OV-3 ovarian) | TGI (SNB-19 CNS) | TGI (SNB-75 CNS) | TGI (SW-620 colon) | TGI (T-47D breast) | TGI (TK-10 renal) | TGI (U251 CNS) | TGI (UACC-257 melanoma) | TGI (UACC-62 melanoma) | TGI (UO-31 renal)
45.1 µM: TGI (HL-60(TB) leukemia)
83.6 µM: TGI (CCRF-CEM leukemia)

O=C(O)CN1CCNCCNCC1
> 100 µM: TGI (786-0 renal) | TGI (A498 renal) | TGI (A549 NSCLC) | TGI (ACHN renal) | TGI (BT-549 breast) | TGI (CAKI-1 renal) | TGI (CCRF-CEM leukemia) | TGI (COLO 205 colon) | TGI (DU-145 prostate) | TGI (EKVX NSCLC) | TGI (HCT-116 colon) | TGI (HCT-15 colon) | TGI (HOP-62 NSCLC) | TGI (HOP-92 NSCLC) | TGI (HS 578T breast) | TGI (HT29 colon) | TGI (IGROV1 ovarian) | TGI (K-562 leukemia) | TGI (KM12 colon) | TGI (LOX IMVI melanoma) | TGI (M14 melanoma) | TGI (MCF7 breast) | TGI (MDA-MB-231 breast) | TGI (MDA-MB-435) | TGI (MDA-N) | TGI (MOLT-4 leukemia) | TGI (NCI-H226 lung) | TGI (NCI-H460 lung) | TGI (NCI/ADR-RES ovarian) | TGI (OVCAR-3 ovarian) | TGI (OVCAR-4 ovarian) | TGI (OVCAR-5 ovarian) | TGI (OVCAR-8 ovarian) | TGI (PC-3 prostate) | TGI (RPMI-8226 leukemia) | TGI (SF-539 CNS) | TGI (SK-MEL-2 melanoma) | TGI (SK-MEL-28 melanoma) | TGI (SK-MEL-5 melanoma) | TGI (SK-OV-3 ovarian) | TGI (SN12C renal) | TGI (SNB-19 CNS) | TGI (SNB-75 CNS) | TGI (SR leukemia) | TGI (SW-620 colon) | TGI (T-47D breast) | TGI (TK-10 renal) | TGI (U251 CNS) | TGI (UACC-257 melanoma) | TGI (UACC-62 melanoma) | TGI (UO-31 renal)
68.5 µM: TGI (HL-60(TB) leukemia)

CCC(Cc1cnc2nc(N)nc(N)c2n1)c1ccc(C(=O)NC(CCC(=O)O)C(=O)O)cc1 (stereo unspecified)
active: GI50 (EKVX NSCLC) 0.0196 µM | GI50 (SNB-19 CNS) 0.0134 µM
1.28 µM: TGI (SF-539 CNS)
> 100 µM: TGI (786-0 renal) | TGI (A498 renal) | TGI (A549 NSCLC) | TGI (ACHN renal) | TGI (BT-549 breast) | TGI (CAKI-1 renal) | TGI (CCRF-CEM leukemia) | TGI (COLO 205 colon) | TGI (DU-145 prostate) | TGI (EKVX NSCLC) | TGI (HCT-116 colon) | TGI (HCT-15 colon) | TGI (HL-60(TB) leukemia) | TGI (HOP-62 NSCLC) | TGI (HS 578T breast) | TGI (HT29 colon) | TGI (K-562 leukemia) | TGI (KM12 colon) | TGI (LOX IMVI melanoma) | TGI (M14 melanoma) | TGI (MCF7 breast) | TGI (MDA-MB-231 breast) | TGI (MDA-MB-435) | TGI (MDA-N) | TGI (MOLT-4 leukemia) | TGI (NCI-H226 lung) | TGI (NCI-H23 lung) | TGI (NCI-H460 lung) | TGI (NCI-H522 lung) | TGI (NCI/ADR-RES ovarian) | TGI (OVCAR-3 ovarian) | TGI (OVCAR-4 ovarian) | TGI (OVCAR-5 ovarian) | TGI (OVCAR-8 ovarian) | TGI (PC-3 prostate) | TGI (SF-268 CNS) | TGI (SF-295 CNS) | TGI (SK-MEL-2 melanoma) | TGI (SK-MEL-28 melanoma) | TGI (SK-MEL-5 melanoma) | TGI (SN12C renal) | TGI (SNB-19 CNS) | TGI (SNB-75 CNS) | TGI (SR leukemia) | TGI (SW-620 colon) | TGI (T-47D breast) | TGI (TK-10 renal) | TGI (UACC-257 melanoma) | TGI (UO-31 renal)
inactive: GI50 (M14 melanoma) 34.5 µM | GI50 (MDA-MB-231 breast) > 100 µM | GI50 (NCI-H226 lung) > 100 µM | GI50 (OVCAR-3 ovarian) > 100 µM | GI50 (OVCAR-4 ovarian) > 100 µM | GI50 (SK-MEL-2 melanoma) > 100 µM | GI50 (SK-MEL-28 melanoma) > 100 µM
